{"source": "patent US20210220312A1", "about": "“Compositions And Methods For Modulating Cancer” (Tyme, Inc., priority 2020, published 2021)", "tested_on": "HCT116 tumors", "experiment": "Antitumor effect of oral α-methyl-DL-tyrosine in athymic nude mice bearing HCT116 tumors", "assay_type": "in vivo", "description": "A study was conducted to evaluate the antitumor effect of an oral formulations of α-methyl-DL-tyrosine in athymic nude mice bearing HCT116 tumors. Athymic nude mice (female, 6-7 weeks old) were purchased from Charles River Laboratories, USA. The mice were housed in a ventilated cage rack with HEAP filter system, with 12-hour light cycle at 21-24° C. (70-75° F.) and 40-60% humidity. The mice were fed with Rodent Diet 5001 (Lab Diet) consisting of: >23% protein; >4.5% fat; and >6% fiber. The mice were allowed free access to water ([…] water, 1 ppm CI). The mice were acclimated for 5 days prior to the implantation of HCT116 cells at 1 million cells per mouse in 100 ul of 1×PBS containing 50% Matrigel. At the completion of study, mice were euthanized with isoflurane followed by inhalation of carbon dioxide (CO2). The HCT116 cells (human colon carcinoma) were purchased from ATCC, and expanded to sufficient number of cells for tumor cell implantation. Solutions of α-methyl-DL-tyrosine at 16.2 mg/ml, 32.4 mg/ml, and 64.8 mg/ml in water were prepared After an acclimation period of 5 days, fifty (50) athymic nude female mice were inoculated in the thigh/flank area with 1 million of HCT116 cells suspended in 100 μl 1×PBS containing 50% Matrigel. Beginning at Day 6 post cell inoculation, the tumor volume was measured every day until the average tumor volume reached about 100 mm^3 (Tumor Volume=length×width×width×0.5). Forty-four (44) out of the fifty (50) mice within the range of 50-150 mm^3 were selected and randomly grouped into 4 groups (n=11): a control group treated with water ([…]), and 324 mg/kg (Group 4). The HCT-116 tumor bearing mice were oral gavage (PO) dosed daily at 5 ml/kg with water (Group 1), α-methyl-DL-tyrosine at 81 mg/kg (Group 2), α-methyl-DL-tyrosine at 162 mg/kg (Group 3), and α-methyl-DL-tyrosine at 324 mg/kg (Group 4) for 28 days. Clinical observations were made daily; tumor volume was measured every three to four days prior to dosing until the completion of study or when individual tumor volume exceeds 2000 mm^3."}
{"compound": "CC(N)(Cc1ccc(O)cc1)C(=O)O", "note": "(racemic) [α-methyl-DL-tyrosine]", "values": [{"measurement": "tumor growth inhibition", "setting": "324 mg/kg daily PO, p<0.05, t-test", "result": "statistically significant"}, {"measurement": "tumor inhibition", "setting": "324 mg/kg daily, Day 28", "result": "non-significant"}, {"measurement": "HCT-116 Tumor volume (group average)", "setting": "G2, 162 mg/kg [sic] PO daily, n = 11, Day 0 post 1st dosing", "result": 63.5, "unit": "mm^3"}, {"measurement": "HCT-116 Tumor volume (group average)", "setting": "G2, 162 mg/kg [sic] PO daily, n = 11, Day 4 post 1st dosing", "result": 112.5, "unit": "mm^3"}, {"measurement": "HCT-116 Tumor volume (group average)", "setting": "G2, 162 mg/kg [sic] PO daily, n = 11, Day 7 post 1st dosing", "result": 215.3, "unit": "mm^3"}, {"measurement": "HCT-116 Tumor volume (group average)", "setting": "G2, 162 mg/kg [sic] PO daily, n = 11, Day 11 post 1st dosing", "result": 373.6, "unit": "mm^3"}, {"measurement": "HCT-116 Tumor volume (group average)", "setting": "G2, 162 mg/kg [sic] PO daily, n = 11, Day 14 post 1st dosing", "result": 643.5, "unit": "mm^3"}, {"measurement": "HCT-116 Tumor volume (group average)", "setting": "G2, 162 mg/kg [sic] PO daily, n = 11, Day 18 post 1st dosing", "result": 1022.3, "unit": "mm^3"}, {"measurement": "HCT-116 Tumor volume (group average)", "setting": "G2, 162 mg/kg [sic] PO daily, n = 11, Day 21 post 1st dosing", "result": 1405.9, "unit": "mm^3"}, {"measurement": "HCT-116 Tumor volume (group average)", "setting": "G2, 162 mg/kg [sic] PO daily, n = 11, Day 25 post 1st dosing", "result": 1592.4, "unit": "mm^3"}, {"measurement": "HCT-116 Tumor volume (group average)", "setting": "G2, 162 mg/kg [sic] PO daily, n = 11, Day 28 post 1st dosing", "result": 1718.8, "unit": "mm^3"}, {"measurement": "HCT-116 Tumor volume (group average)", "setting": "G3, 81 mg/kg [sic] PO daily, n = 11, Day 0 post 1st dosing", "result": 64.3, "unit": "mm^3"}, {"measurement": "HCT-116 Tumor volume (group average)", "setting": "G3, 81 mg/kg [sic] PO daily, n = 11, Day 4 post 1st dosing", "result": 106.0, "unit": "mm^3"}, {"measurement": "HCT-116 Tumor volume (group average)", "setting": "G3, 81 mg/kg [sic] PO daily, n = 11, Day 7 post 1st dosing", "result": 214.6, "unit": "mm^3"}, {"measurement": "HCT-116 Tumor volume (group average)", "setting": "G3, 81 mg/kg [sic] PO daily, n = 11, Day 11 post 1st dosing", "result": 391.4, "unit": "mm^3"}, {"measurement": "HCT-116 Tumor volume (group average)", "setting": "G3, 81 mg/kg [sic] PO daily, n = 11, Day 14 post 1st dosing", "result": 676.6, "unit": "mm^3"}, {"measurement": "HCT-116 Tumor volume (group average)", "setting": "G3, 81 mg/kg [sic] PO daily, n = 11, Day 18 post 1st dosing", "result": 1210.3, "unit": "mm^3"}, {"measurement": "HCT-116 Tumor volume (group average)", "setting": "G3, 81 mg/kg [sic] PO daily, n = 11, Day 21 post 1st dosing", "result": 1680.1, "unit": "mm^3"}, {"measurement": "HCT-116 Tumor volume (group average)", "setting": "G3, 81 mg/kg [sic] PO daily, n = 11, Day 25 post 1st dosing", "result": 1868.0, "unit": "mm^3"}, {"measurement": "HCT-116 Tumor volume (group average)", "setting": "G3, 81 mg/kg [sic] PO daily, n = 11, Day 28 post 1st dosing", "result": 1979.2, "unit": "mm^3"}, {"measurement": "HCT-116 Tumor volume (group average)", "setting": "G4, 324 mg/kg PO daily, n = 11, Day 0 post 1st dosing", "result": 64.2, "unit": "mm^3"}, {"measurement": "HCT-116 Tumor volume (group average)", "setting": "G4, 324 mg/kg PO daily, n = 11, Day 4 post 1st dosing", "result": 92.9, "unit": "mm^3"}, {"measurement": "HCT-116 Tumor volume (group average)", "setting": "G4, 324 mg/kg PO daily, n = 11, Day 7 post 1st dosing", "result": 172.3, "unit": "mm^3"}, {"measurement": "HCT-116 Tumor volume (group average)", "setting": "G4, 324 mg/kg PO daily, n = 11, Day 11 post 1st dosing", "result": 310.5, "unit": "mm^3"}, {"measurement": "HCT-116 Tumor volume (group average)", "setting": "G4, 324 mg/kg PO daily, n = 11, Day 14 post 1st dosing", "result": 506.3, "unit": "mm^3"}, {"measurement": "HCT-116 Tumor volume (group average)", "setting": "G4, 324 mg/kg PO daily, n = 11, Day 18 post 1st dosing", "result": 654.9, "unit": "mm^3"}, {"measurement": "HCT-116 Tumor volume (group average)", "setting": "G4, 324 mg/kg PO daily, n = 11, Day 21 post 1st dosing", "result": 890.6, "unit": "mm^3"}, {"measurement": "HCT-116 Tumor volume (group average)", "setting": "G4, 324 mg/kg PO daily, n = 11, Day 25 post 1st dosing", "result": 1090.1, "unit": "mm^3"}, {"measurement": "HCT-116 Tumor volume (group average)", "setting": "G4, 324 mg/kg PO daily, n = 11, Day 28 post 1st dosing", "result": 1325.7, "unit": "mm^3"}, {"measurement": "maximum anti-tumor efficacy, reduction in tumor volume", "setting": "observed on Day 22 (so in the source)", "result": 48, "unit": "%"}]}
